Assay results reported in PubChem BioAssay (NCI).
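Dose response: 5 concentrations. Exposure: 48 h. Format: 96-well plates. Endpoint: linear interpolation; highest concentration if not reached. GI50: concentration for 50% inhibition of growth. TGI marks complete inhibition of growth.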

Columns and labels:
Assay in all cases: NCI tumour cell line growth inhibition, 48 h
SK-MEL-5 melanoma = test system: SK-MEL-5 melanoma
SK-OV-3 ovarian = test system: SK-OV-3 ovarian
A549 NSCLC = test system: A549 NSCLC
HL-60(TB) leukemia = test system: HL-60(TB) leukemia
HOP-62 NSCLC = test system: HOP-62 NSCLC
OVCAR-5 ovarian = test system: OVCAR-5 ovarian
HCT-116 colon = test system: HCT-116 colon
COLO 205 colon = test system: COLO 205 colon

| Structure (SMILES) | TGI (SK-MEL-5 melanoma) | TGI (SK-OV-3 ovarian) | TGI (A549 NSCLC) | TGI (HL-60(TB) leukemia) | TGI (HOP-62 NSCLC) | TGI (OVCAR-5 ovarian) | TGI (HCT-116 colon) | TGI (COLO 205 colon) | GI50 (HL-60(TB) leukemia) |
| --- | --- | --- | --- | --- | --- | --- | --- | --- | --- |
| N#C/C(=C/c1ccc([N+](=O)[O-])o1)c1ccccc1 | > 100 µM | > 100 µM | > 100 µM | > 100 µM | > 100 µM | > 100 µM | > 100 µM | > 100 µM | – |
| Cc1nc2ccccc2c(=O)n1/N=C(\N=Nc1cc(Cl)ccc1Cl)c1ccc(N(C)C)cc1 | > 100 µM | > 100 µM | > 100 µM | 56.5 µM | 83 µM | – | > 100 µM | > 100 µM | – |
| C#Cc1c(C)c(/C=C/C(C)=C\C(=O)OC)n(C)c1C | – | > 100 µM | > 100 µM | > 100 µM | > 100 µM | > 100 µM | – | > 100 µM | – |
| Nc1ncc(CN2CCCC2)c(-c2ccccc2O)n1 | > 750 µM | > 750 µM | > 750 µM | – | > 750 µM | > 750 µM | > 750 µM | > 750 µM | > 750 µM |
| CC(C)(c1ccc(C=O)o1)c1ccc(C(C)(C)c2ccc(C=O)o2)o1 | – | > 100 µM | > 100 µM | > 100 µM | > 100 µM | > 100 µM | > 100 µM | > 100 µM | – |
| O=C1CCNC/C1=C\c1ccccc1 | 40.2 µM | > 100 µM | 92.2 µM | 47.7 µM | 79 µM | 81.3 µM | 47.4 µM | > 100 µM | – |
| CCNC(=O)O/N=C1\CCC2[C@@H]3CC=C4C[C@@H](OC(=O)NCC)CC[C@]4(C)C3CC[C@]12C (some centres undefined) | 10.4 µM | 19.7 µM | 13.5 µM | – | > 100 µM | 17.1 µM | 13.7 µM | 1.73 µM | – |
| N#Cc1c(N)oc2cc3c(C#N)c(N)oc3cc12 | > 100 µM | > 100 µM | > 100 µM | > 100 µM | > 100 µM | > 100 µM | – | > 100 µM | – |
| CCOC(=O)C(Oc1ccc(OC)c2c1C(=O)CCC2)c1ccccc1 (centres undefined) | > 100 µM | > 100 µM | > 100 µM | > 100 µM | > 100 µM | > 100 µM | > 100 µM | > 100 µM | – |
| CCn1c(=O)nc2n(-c3ccc(SC)cc3)c3ccccc3nc-2c1=O | > 100 µM | > 100 µM | > 100 µM | > 100 µM | > 100 µM | > 100 µM | – | > 100 µM | – |
| CCOC(=O)C1=C(C)N(NC(=O)Nc2ccccc2)C2(N)N(NC(=O)Nc3ccccc3)C(C)=C(C(=O)OCC)C12C#N (centres undefined) | – | 52.1 µM | > 100 µM | – | – | 32.4 µM | 31.2 µM | 32.6 µM | – |
| CCOC(=O)C(=O)CC(=O)C(Br)C(Br)c1ccc(Cl)cc1 (centres undefined) | > 100 µM | > 100 µM | > 100 µM | 42 µM | > 100 µM | > 100 µM | – | 53.5 µM | – |
| CN(C)NC(=O)NC12CC3CC(CC(C3)C1)C2 | > 100 µM | > 100 µM | > 100 µM | > 100 µM | – | > 100 µM | > 100 µM | > 100 µM | – |
| COc1cc(O)c(C(=O)C2Cc3ccccc32)c(OC)c1 (centres undefined) | > 100 µM | > 100 µM | > 100 µM | 39.7 µM | > 100 µM | > 100 µM | > 100 µM | > 100 µM | – |
| N/N=C1/C(=O)N(c2ccc(Cl)cc2)C(=O)C(=O)C1c1nc2ccccc2s1 (centres undefined) | > 100 µM | > 100 µM | > 100 µM | > 100 µM | > 100 µM | > 100 µM | > 100 µM | > 100 µM | – |
| NN=C1/C(=C\c2ccccc2)CCC/C1=C/c1ccccc1 | – | > 100 µM | > 100 µM | 45.1 µM | > 100 µM | > 100 µM | > 100 µM | 71.4 µM | – |
| COC1=CC(=O)C2(C=C1OC)OC[C@H]1Oc3c(ccc4c3C=CC(C)(C)O4)C(=O)[C@H]12 (some centres undefined) | – | > 100 µM | > 100 µM | 44.6 µM | > 100 µM | > 100 µM | > 100 µM | > 100 µM | – |
| O=C1c2c(c3c4ccccc4n(CC4CO4)c3c3[nH]c4ccccc4c23)C(=O)N1Cc1ccccc1 (centres undefined) | – | > 100 µM | > 100 µM | > 100 µM | > 100 µM | > 100 µM | > 100 µM | – | – |
| CCN(CC)c1ccc(N=Nc2ccc(-c3nc4cccnc4s3)cc2)cc1 | > 100 µM | > 100 µM | > 100 µM | > 100 µM | > 100 µM | > 100 µM | > 100 µM | > 100 µM | – |
| CSCSCC(CO)NC(=O)/C=C/c1c(C)[nH]c(=O)[nH]c1=O (centres undefined) | > 100 µM | – | > 100 µM | > 100 µM | – | > 100 µM | > 100 µM | – | – |
| CC(=O)OC1(C(C)=O)CC2(c3ccccc3)OC1(c1ccccc1)c1ccccc12 (centres undefined) | 8.53 µM | > 100 µM | > 100 µM | – | 61.5 µM | > 100 µM | > 100 µM | 21.4 µM | – |
| O=C1N(c2ccc(Cl)cc2)C(=O)C2(SC=NN2Cc2ccccc2)N1c1ccc(Cl)cc1 (centres undefined) | > 100 µM | > 100 µM | > 100 µM | > 100 µM | > 100 µM | – | > 100 µM | – | – |
